Reference: US10905692B2, “Combination therapy for treating malignancies” (Agios Pharmaceuticals, Inc., priority 2015, dated 2021)

Experiment: blood bilirubin in subjects with a UGT1A1 mutation receiving COMPOUND 1
Assay type: in vivo, human
Text: All toxicity ≥Grade 3 not due to underlying AML or complications of the disease or myelosuppressive treatment, with the exception of ≥Grade 3 blood bilirubin increases in subjects with a UGT1A1 mutation receiving COMPOUND 1.

CC(C)(O)CNc1nc(Nc2ccnc(C(F)(F)F)c2)nc(-c2cccc(C(F)(F)F)n2)n1 [COMPOUND 1, 2-methyl-1-[(4-[6-(trifluoromethyl)pyridin-2-yl]-6-{[2-(trifluoromethyl)pyridin-4-yl]amino}-1,3,5-triazin-2-yl)amino]propan-2-ol]
blood bilirubin increases: isolated blood bilirubin increases have been seen
